One assay addresses human kallikrein 7 (Homo sapiens, UniProt P49862). The experiment in a line: Kallikrein-7 inhibitory activity in vitro (fluorescence-quenched substrate). It counts as biochemical. As for the experimental part: (§1) IC50 for human kallikrein can be measured using the fluorescence-quenched substrate Ac-Glu-Asp(EDANS)-Lys-Pro-Ale-Leu-Phe^Arg-Leu-Gly-Lys(DABCYL)-Glu-NH2 (where ^ indicates the scissile bond, identified by MS analysis) which can be purchased from Biosyntan (Berlin, Germany). Enzymatic reactions are conducted in 50 mM sodium citrate buffer at pH 5.6 containing 150 mM NaCl and 0.05% (w/v) CHAPS. For the determination of IC50 values the assay is performed at room temperature in 384-well plates. All final assay volumes are 30 μl. Test compounds are dissolved in 90% (v/v) DMSO/water and diluted in water (containing 0.05% (w/v) CHAPS) to 3-times the desired assay concentration. The 11 final compound concentrations are: 0.3 nM, 1 nM, 3 nM, 10 nM, 30 nM, 100 nM, 300 nM, 1 μM, 3 μM, 10 μM and 30 μM. For each assay, 10 μl water/CHAPS (±test compound) are added per well, followed by 10 μl protease solution (diluted with 1.5× assay buffer). The protease concentration in final assay solution is 0.2 nM (according to the enzyme concentrations determined by the Bradford method). After 1 hour of incubation at room temperature, the reaction is started by addition of 10 μl substrate solution (substrate dissolved in 1.5× assay buffer, final concentration is 2 μM). […] The IC50 value is calculated from the plot of percentage of inhibition vs. inhibitor concentration using non-linear regression analysis software (XLfit, Vers. 4.0; ID Business Solution Ltd., Guildford, Surrey, UK).
The fluorescence-quenched substrate Ac-Glu-Asp(EDANS)-Lys-Pro-Ale-Leu-Phe^Arg-Leu-Gly-Lys(DABCYL)-Glu-NH2 (where ^ indicates the scissile bond, identified by MS analysis) is purchased from Biosyntan (Berlin, Germany) and kept as a 5 mM stock solution in DMSO at −20° C. All other chemicals are of analytical grade.
Enzymatic reactions are conducted in 50 mM sodium citrate buffer at pH 5.6 containing 150 mM NaCl and 0.05% (w/v) CHAPS.
All protein and peptide containing solutions are handled in siliconized tubes (Life Systems Design, Merenschwand, Switzerland). The compound solutions as well as the enzyme and the substrate solutions are transferred to the 384-well plates (black Cliniplate; cat. no. 95040020 Labsystems Oy, Finland) by means of a CyBi-Well 96-channel pipettor (CyBio AG, Jena, Germany).
(§2) For fluorescence intensity (FI) measurements an Ultra Evolution reader (TECAN, Maennedorf, Switzerland) is used. The instrument is equipped with a combination of a 350 nm (20 nm bandwidth) and a 500 nm (25 nm bandwidth) bandpass filter for fluorescence excitation and emission acquisition, respectively. To increase the signal:background ratio, an appropriate dichroic mirror is employed. The optical filters and the dichroic mirror are purchased from TECAN. The fluorophores in each well are excited by three flashes per measurement.
as §1, with “For” for “IC50 for human kallikrein can be measured using the fluorescence-quenched substrate Ac-Glu-Asp(EDANS)-Lys-Pro-Ale-Leu-Phe^Arg-Leu-Gly-Lys(DABCYL)-Glu-NH2 (where ^ indicates the scissile bond, identified by MS analysis) which can be purchased from Biosyntan (Berlin, Germany). Enzymatic reactions are conducted in 50 mM sodium citrate buffer at pH 5.6 containing 150 mM NaCl and 0.05% (w/v) CHAPS. For”, “volumes were” for “volumes are”, “concentration was” for “concentration is”

Assay [1] addresses T1, Human neutrophil elastase (Homo sapiens, UniProt P08246).
T1 construct: purchased Elastin Products Company, Inc. (EPC, Owensville, USA) SE563
T1 sequence (P08246 30-267): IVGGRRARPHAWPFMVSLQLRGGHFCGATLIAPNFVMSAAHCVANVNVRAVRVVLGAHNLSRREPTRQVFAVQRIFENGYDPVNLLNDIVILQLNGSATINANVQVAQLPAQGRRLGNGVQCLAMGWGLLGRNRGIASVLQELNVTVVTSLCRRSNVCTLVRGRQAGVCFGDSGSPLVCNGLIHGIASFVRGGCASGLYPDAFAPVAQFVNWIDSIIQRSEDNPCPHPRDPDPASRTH
Nature of the assay: HNE inhibitory activity in vitro (fluorescence-quenched substrate). It is filed as biochemical. As for the experimental part:
Human neutrophil elastase (cat. no. SE563) is purchased from Elastin Products Company, Inc. (EPC, Owensville, USA). The dry powder (purity >95% stated by the supplier) was dissolved in 20 mM sodium acetate buffer, pH 5.0, 50% (v/v) glycerol, and frozen at −80° C. in aliquots.
The fluorescence-quenched substrate (DABCYL-Ser-Glu-Val^Asn-Leu-Asp-Ala-Glu-Phe-EDANS, where ^ indicates the scissile bond, identified by MS analysis) was purchased from Bachem AG (Bubendorf, Switzerland), and kept as a 5 mM stock solution in DMSO at −20° C. All other chemicals were of analytical grade.
Enzymatic reactions were conducted in 100 mM Tris/HCl buffer at pH 7.5, containing 500 mM NaCl, and 0.05% (w/v) CHAPS.
All protein and peptide containing solutions are handled in siliconized tubes (Life Systems Design, Merenschwand, Switzerland).
The compound solutions as well as the enzyme and the substrate solutions are transferred to the 384-well plates (black Cliniplate; cat. no. 95040020 Labsystems Oy, Finland) by means of a CyBi-Well 96-channel pipettor (CyBio AG, Jena, Germany).
as §2

The mark [2] stands for this setting: Table 11, read-out: hKallikrein7 IC 50.
Where [3] appears, read: Table 11, read-out: human neutrophile elastase IC 50.

Our source for the IC50 values is patent US9127044B2, “Cyclic depsipeptides” (NOVARTIS AG, priority 2007, dated 2015).

Where two headings read alike, the source gives them in different places.

Chain of human kallikrein 7 (P49862 30-253): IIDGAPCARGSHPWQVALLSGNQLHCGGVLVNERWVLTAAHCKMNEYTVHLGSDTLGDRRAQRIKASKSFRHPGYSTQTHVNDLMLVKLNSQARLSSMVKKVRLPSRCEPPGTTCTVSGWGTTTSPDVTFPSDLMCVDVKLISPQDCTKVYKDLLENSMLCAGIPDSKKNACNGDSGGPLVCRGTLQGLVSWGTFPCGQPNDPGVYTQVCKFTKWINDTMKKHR

For the molecule `CCC(C)C1NC(=O)C(Cc2ccc(O)cc2)N(C)C(=O)C(C(C)CC)N2CCCC(NC(=O)C(CC(C)C)NC(=O)C(NC(=O)C(CCC(N)=O)NC(=O)C(C)C)C(C)OC1=O)C2=O` (centres unmarked) [example 4], the IC50 amounted to 6 nM on human kallikrein 7 (setting [2]) and 55 nM in assay [1] (setting [3]).
`CCCOC1CCC2NC(=O)C(CC(C)C)NC(=O)C(NC(=O)C(CCC(N)=O)NC(=O)C(C)C)C(C)OC(=O)C(C(C)CC)NC(=O)C(Cc3ccc(O)cc3)N(C)C(=O)C(C(C)CC)N1C2=O` (centres unmarked) [example 5]: the IC50 on human kallikrein 7 (IC50 for human kallikrein 7) is 9 nM; at human kallikrein 7 (hKallikrein7 IC 50, Table 11), 8 nM; in assay [1], 5 nM.
On to `CCCCCCCCOC1CCC2NC(=O)C(CC(C)C)NC(=O)C(NC(=O)C(CCC(N)=O)NC(=O)C(C)C)C(C)OC(=O)C(C(C)CC)NC(=O)C(Cc3ccc(O)cc3)N(C)C(=O)C(C(C)CC)N1C2=O` (centres unmarked) [example 6], for which the IC50 on human kallikrein 7 (hKallikrein7 IC 50, Table 11) is 95 nM; in assay [1], 55 nM.
As to `CCC(C)C1NC(=O)C(Cc2ccc(O)cc2)N(C)C(=O)C(C(C)CC)N2C(=O)C(CCC2OCC(F)(F)F)NC(=O)C(CC(C)C)NC(=O)C(NC(=O)C(CCC(N)=O)NC(=O)C(C)C)C(C)OC1=O` (centres unmarked) [example 7], the IC50 at human kallikrein 7 (hKallikrein7 IC 50, Table 11) was 50 nM; in assay [1], 6 nM.
As to `CCCCOC1CCC2NC(=O)C(CC(C)C)NC(=O)C(NC(=O)C(CCC(N)=O)NC(=O)C(C)C)C(C)OC(=O)C(C(C)CC)NC(=O)C(Cc3ccc(O)cc3)N(C)C(=O)C(C(C)CC)N1C2=O` (centres unmarked) [example 11], the IC50 was 6 nM at human kallikrein 7 (hKallikrein7 IC 50, Table 11) and 12 nM in assay [1].
For the molecule `CCC(C)C1NC(=O)C(Cc2ccc(O)cc2)N(C)C(=O)C(C(C)CC)N2C(=O)C(CCC2OCC(C)C)NC(=O)C(CC(C)C)NC(=O)C(NC(=O)C(CCC(N)=O)NC(=O)C(C)C)C(C)OC1=O` (centres unmarked) [example 12], the IC50 on human kallikrein 7 (hKallikrein7 IC 50, Table 11) was determined as 8.5 nM; in assay [1] it was 6 nM.
With `CCC(C)C1NC(=O)C(Cc2ccc(O)cc2)N(C)C(=O)C(C(C)CC)N2C(=O)C(CCC2OCCOC)NC(=O)C(CC(C)C)NC(=O)C(NC(=O)C(CCC(N)=O)NC(=O)C(C)C)C(C)OC1=O` (centres unmarked) [example 13], the IC50 at human kallikrein 7 (hKallikrein7 IC 50, Table 11) came out at 6 nM; in assay [1], 4 nM.
For `CCC(C)C1NC(=O)C(Cc2ccc(O)cc2)N(C)C(=O)C(C(C)CC)N2C(=O)C(CCC2OCCO)NC(=O)C(CC(C)C)NC(=O)C(NC(=O)C(CCC(N)=O)NC(=O)C(C)C)C(C)OC1=O` (centres unmarked) [example 14] the same measures were 10 nM and 5 nM.
`CCC(C)C1NC(=O)C(Cc2ccc(O)cc2)N(C)C(=O)C(C(C)CC)N2C(=O)C(CCC2OCCOCCO)NC(=O)C(CC(C)C)NC(=O)C(NC(=O)C(CCC(N)=O)NC(=O)C(C)C)C(C)OC1=O` (centres unmarked) [example 15]: the IC50 on human kallikrein 7 (hKallikrein7 IC 50, Table 11) came out at 15 nM; in assay [1] it was 5 nM.
For `CCC(C)C1NC(=O)C(Cc2ccc(O)cc2)N(C)C(=O)C(C(C)CC)N2C(=O)C(CCC2OCCOCCOC)NC(=O)C(CC(C)C)NC(=O)C(NC(=O)C(CCC(N)=O)NC(=O)C(C)C)C(C)OC1=O` (centres unmarked) [example 16], the IC50 on human kallikrein 7 (hKallikrein7 IC 50, Table 11) was 15 nM; in assay [1] it was 5 nM.
As for `CCC(C)C1NC(=O)C(Cc2ccc(O)cc2)N(C)C(=O)C(C(C)CC)N2C(=O)C(CCC2OC)NC(=O)C(CC(C)C)NC(=O)C(NC(=O)C(CCC(N)=O)NC(=O)C(C)C)C(C)OC1=O` (centres unmarked) [example 17], the IC50 at human kallikrein 7 (hKallikrein7 IC 50, Table 11) was determined as 3 nM; in assay [1], 7.5 nM.
For `C#CCOC1CCC2NC(=O)C(CC(C)C)NC(=O)C(NC(=O)C(CCC(N)=O)NC(=O)C(C)C)C(C)OC(=O)C(C(C)CC)NC(=O)C(Cc3ccc(O)cc3)N(C)C(=O)C(C(C)CC)N1C2=O` (centres unmarked) [example 18], the IC50 on human kallikrein 7 (hKallikrein7 IC 50, Table 11) is 5 nM; in assay [1], 2.5 nM.
As for `CCC(C)C1NC(=O)C(Cc2ccc(O)cc2)N(C)C(=O)C(C(C)CC)N2C(=O)C(CCC2OC)NC(=O)C(CC(C)C)NC(=O)C(NC(=O)C(CCC(=O)OC)NC(=O)C(C)C)C(C)OC1=O` (centres unmarked) [example 20], the IC50 at human kallikrein 7 (hKallikrein7 IC 50, Table 11) is 1.5 nM; in assay [1], 8 nM.
For `CCC(C)C1NC(=O)C(Cc2ccc(O)cc2)N(C)C(=O)C(C(C)CC)N2C(=O)C(CCC2O)NC(=O)C(CC(C)C)NC(=O)C(NC(=O)C(CCC#N)NC(=O)C(C)C)C(C)OC1=O` (centres unmarked) [example 21], the figures for the IC50 (on human kallikrein 7 (setting [2]); in assay [1] (setting [3])) were 2.5 nM and 9 nM, respectively.
With `CCC(C)C1NC(=O)C(Cc2ccc(O)cc2)N(C)C(=O)C(C(C)CC)N2CCCC(NC(=O)C(CC(C)C)NC(=O)C(NC(=O)C(CCC#N)NC(=O)C(C)C)C(C)OC1=O)C2=O` (centres unmarked) [example 22], the IC50 came to 6 nM on human kallikrein 7 (setting [2]) and 40 nM in assay [1] (setting [3]).
Regarding `CCCOC1CCC2NC(=O)C(CC(C)C)NC(=O)C(NC(=O)C(CCC#N)NC(=O)C(C)C)C(C)OC(=O)C(C(C)CC)NC(=O)C(Cc3ccc(O)cc3)N(C)C(=O)C(C(C)CC)N1C2=O` (centres unmarked) [example 24], the IC50 on human kallikrein 7 (setting [2]) worked out at 7 nM; in assay [1] (setting [3]) it was 4 nM.
For `CCCCCCOC(=O)Oc1ccc(CC2C(=O)NC(C(C)CC)C(=O)OC(C)C(NC(=O)C(CCC(N)=O)NC(=O)C(C)C)C(=O)NC(CC(C)C)C(=O)NC3CCC(O)N(C3=O)C(C(C)CC)C(=O)N2C)cc1` (centres unmarked) [example 26], the IC50 on human kallikrein 7 (setting [2]) is 0.85 nM; in assay [1] (setting [3]), 4.5 nM.
Take `CCC(C)[C@@H]1NC(=O)[C@H](Cc2ccc(OC(=O)OCC(C)C)cc2)N(C)C(=O)[C@H](C(C)CC)N2CCCC(NC(=O)[C@H](CC(C)C)NC(=O)[C@@H](NC(=O)[C@H](CCC(N)=O)NC(=O)C(C)C)[C@@H](C)OC1=O)C2=O` (some centres unmarked) [example 27]: the IC50 is 3 nM at human kallikrein 7 (hKallikrein7 IC 50, Table 11) and 20 nM in assay [1].
`CCC(C)C1NC(=O)C(Cc2ccc(OC(=O)OCCOC)cc2)N(C)C(=O)C(C(C)CC)N2CCCC(NC(=O)C(CC(C)C)NC(=O)C(NC(=O)C(CCC(N)=O)NC(=O)C(C)C)C(C)OC1=O)C2=O` (centres unmarked) [example 28]: the IC50 on human kallikrein 7 (setting [2]) stood at 2.5 nM; in assay [1] (setting [3]), 30 nM.
Turning to `CCOC(=O)Oc1ccc(C[C@H]2C(=O)N[C@@H](C(C)CC)C(=O)O[C@H](C)[C@H](NC(=O)[C@H](CCC(N)=O)NC(=O)C(C)C)C(=O)N[C@@H](CC(C)C)C(=O)NC3CCCN(C3=O)[C@@H](C(C)CC)C(=O)N2C)cc1` (some centres unmarked) [example 29], the IC50 worked out at 3 nM at human kallikrein 7 (setting [2]) and 25 nM in assay [1] (setting [3]).
